Here are results for two compounds from patent US20150158810A1, “PREVENTION OR SUPPRESSION OF CYRSTALLISATION OF BORIC ACID PRESENT IN AN AQUEOUS PHASE” (COMMISSARIAT À L'ÉNERGIE ATOMIQUE ET AUX ÉNERGIES …, priority 2012, published 2015).

A short description of series [1]: crystallization of boric acid in aqueous phase, temperature cycle N. The series is classed as physicochemical. The protocol: (§1) The tests described in the examples hereafter are conducted by means of a device of the type of the one illustrated in the single FIGURE.
(§2) The device consists of a beaker 10 with a double glass wall 11, inside which flows a heat transfer fluid 12. The beaker 10 also contains a U-shaped metal tube 13, which contains a circulating heat transfer fluid 14.
(§3) The temperatures of the heat transfer fluids 12 and 14 are each adjusted independently of the other, by a heat generator (not shown in the single FIGURE).
(§4) However, the temperature of the heat transfer fluid 14 is adjusted so that it is always strictly less than that of the heat transfer fluid 12, typically lower by 1° C. to 10° C. If it is assumed that heat conduction of the material making up the metal tube 13 occurs without any notable loss, the walls of the tube 13 […] thus form a so-called ? cold ? element.
(§5) Two temperature cycles may be applied to an aqueous phase 15 containing boric acid, which is poured into the beaker 10.
A temperature cycle ? […]
(§6) Regardless of the relevant temperature cycle, a crystallization rate is defined at the end of one of these temperature cycles, which corresponds to the ratio of the mass of boric acid crystals measured at the end of this cycle, to the total initially introduced mass of boric acid.

Series [2] in a line: crystallization of boric acid in aqueous phase, temperature cycle P (with a penalty). The series is classed as physicochemical. The protocol:
as §1, §2, §3, §4, §5
A temperature cycle ? P ? […]
as §6

Take `OCC(CO)(CO)CO` [pentaerythritol]: the “reduction in the crystallization of boric acid in an aqueous phase in presence of the compound” value in series [1] is recorded as “appreciable reduction”. Also, the “reduction of the crystallization of boric acid in an aqueous phase in presence of the compound” value in series [2] is recorded as “large reduction”.

For `NC(CO)(CO)CO` [Tris, 2-amino-2-(hydroxymethyl)-propane-1,3-diol], the “reduction in the crystallization of boric acid in an aqueous phase in presence of the compound” value in series [1] is listed as “appreciable reduction”.
